Measurements reported in article PMC6058575, “Enhanced anti-hepatocarcinoma efficacy by GLUT1 targeting and cellular microenvironment-responsive PAMAM–camptothecin conjugate” (Drug Delivery, 2017).
Where two headings read alike, the source gives them in different places.

What was measured:
HepG2 cells [1] = test: Subcellular localization by CLSM; type: cell-based; details: 1 μM CPT, 4 h
Description: HepG2 and L02 cells were seeded on cover glasses embedded in 24-well culture plates at densities of 5 × 10^4 cells/well. After 24 h, conjugates were added at a 1 μM CPT concentration and co-incubated with the cells for 4 h at 37 °C. Then, after the conjugate solutions were removed, the cells were treated with 50 nM MitoTracker deep red for 30 min and 10 mM Basic Orange 14 for 10 min to stain mitochondria and nuclei, respectively (Paleos et al., [2016]). Then, the cells were fixed with 4% paraformaldehyde, washed three times with ice-cold PBS (pH 7.4), and visualized using CLSM.

HepG2 cells [2] = test: Cell-cycle analysis by flow cytometry (PI); type: cell-based; details: 1 μM CPT, 24 h, control cells 21.30%
Description: The cell-cycle percentage of HepG2 was analyzed using flow cytometer. […] After 24 h, the cells were trypsinized, washed with PBS, and fixed with 4 °C pre-cooling 70% ethanol overnight at −20 °C. […] Finally, the cells were stained with propidium iodide (PI) solution for 20 min and determined by flow cytometer.

H22 tumor-bearing mice [3] = test: Toxicity in the efficacy study (body weight, H&E staining); type: in vivo; details: for H&E histology of liver and spleen: 1 mg/kg CPT i.v., day 12
Description: (§1) The tumor-bearing mice were randomly divided into five groups (10 per group). The control group mice were administered saline. […] Body weights were recorded daily. At day 12, four mice of each group were sacrificed by carbon dioxide asphyxiation. Tumors, livers and spleens were collected and fixed with 10% paraformaldehyde for 48 h. These tissues were cut into […] sections and processed for H&E staining. The remaining […] in each group were also sacrificed, and the tumors were collected and weighed.

HepG2 MCTS = test: Uptake in multicellular tumor spheroids (MCTS), CLSM; type: cell-based; details: 1 μM, 8 h, 100 µm depth
Description: Besides that, a multicellular tumor spheroids (MCTS) model, which was more suitable for mimicking the tumor microenvionment, was also employed as a supplement to monolayer cell model for better estimating in vitro targeting efficacy (Kunz-Schughart, [1999]). MCTS model was established by the liquid overlay method as described before (Friedrich et al., [2008]). Briefly, HepG2 cells were seeded in 96-well plates coated with 2% agarose at 2 × 10^3 cells per well and incubated for 5 d. […] Thereafter, MCTS were collected by centrifugation, washed with PBS, and observed by confocal laser scanning microscope (CLSM) (Olympus FV1000, Tokyo, Japan) at 100 µm depth of the MCTS (about the middle section of the sphere).

[4] = Particle size by dynamic light scattering (DLS); type: physicochemical; details: conjugates at 10 mg/ml
Description: The particle sizes and zeta potential of different conjugates at 10 mg/ml were determined using a dynamic light scattering (DLS) particle size analyzer (Nicomp 380 Zeta Potential/Particle Sizer, Santa Barbara, CA). Following staining with 2% sodium phosphotungstate solution, the conjugate morphologies were observed using transmission electron microscopy (TEM) at an accelerating voltage of 100 kV (JEM 1400 JOEL, Akishima City, Tokyo Prefecture, Japan).

[5] = In vitro CPT release by dialysis in PBS with GSH; type: physicochemical; details: compared with MPCC and GPCC
Description: A dialysis method was used to determine the in vitro CPT release of conjugates. Conjugates at concentrations of 1 mg/ml were placed in dialysis bags (MWCO 3500 Da) and immersed in 50 ml PBS (pH 7.4) containing different concentrations of GSH (0 μM, 10 μM and 10 mM) to mimic various cellular microenvironment conditions. The drug release was conducted at 100 rpm and 37 °C. During dialysis, 1 ml aliquots were withdrawn from the release medium at predefined intervals, and 1 ml of fresh release medium was added to maintain a constant total volume. The CPT concentrations were determined by HPLC.

H22 tumor-bearing mice [6] = test: In vivo and ex vivo imaging of tumor targeting; details: in vivo imaging, 1 mg/kg CPT i.v.
Description: (§2) An H22 tumor-bearing mice model was established based on previously reported method (Li et al., [2014]). Ascitic fluid containing H22 cells was extracted and diluted with PBS (pH 7.0) to 1 × 10^7 cells/ml. The mice (20–22 g) were anesthetized with 5% chloral hydrate and subcutaneously injected with 0.2 ml of cell suspension for armpit tumor implantation. All animal studies were approved by the China Animal Care and Use Committee and carried out according to the Guide for the Care and Use of Laboratory Animals of Beijing University of Chinese Medicine.
Mice were intravenously injected with conjugates at 1 mg/kg CPT concentration. […] Afterward, the tumor-bearing mice were immediately sacrificed by carbon dioxide asphyxiation. Subsequently, major organs (such as tumor, liver, spleen, brain, heart, kidney, and lung) were harvested and visualized.

[7] = Pharmacokinetic study after intravenous administration; type: in vivo; details: rats; for maximum plasma drug concentration: 1.5 mg/kg CPT i.v., 5 min post administration
Description: The rats were fasted for 12 h with free access to water before the experiment. Briefly, 0.5 ml of blood was collected in centrifuge tubes at predefined times of 0.083, 0.33, 0.5, 1, 2, 4, 8, 12, and 24 h. Blood samples were centrifuged at 15,000 rpm for 15 min at 4 °C to isolate plasma fractions. Then, 100 μL of methanol was added to the plasma, and the mixture was extracted with 2 mL hexane and 1 mL dichloromethane. The mixture was vortexed for 10 min and centrifuged at 15,000 rpm for 15 min, and the supernatant was collected and dried using a stream of nitrogen gas. The resultant residue was redissolved in 200 μL methanol and stored at −20 °C until further analysis.

HepG2 cells [8] = test: Apoptosis assay, Annexin V-FITC/PI double staining; type: cell-based; details: 1 μM CPT, 24 h
Description: The apoptosis induction effect of conjugates on HepG2 cells was detected by Annexin V-FITC/PI double staining method. […] After 24 h, the cells were trypsinized (without EDTA), washed with PBS (containing 2% BSA), stained by 5 μL of Annexin V-FITC and 5 μL of 100 μg/mL PI, and re-suspended in 500 μL of binding buffer. After 15 min incubation, cells were determined by flow cytometer.

L02 cells = test: MTT cytotoxicity; type: cell-based; details: 24 h
Description: The cytotoxicity of different conjugates on HepG2 and L02 cells was determined using 3-(4,5-dimethyl-2-thiazolyl)-2,5-diphenyl-2-H-tetrazolium bromide (MTT) method. The cells were seeded in 96-well culture plates at a density of 5 × 10^3 cells/well. Then the cells were treated with conjugates and free CPT at CPT concentrations ranging from 3 nM to 20 μM at 37 °C for 24 h when 60–70% confluence was reached. After that, the drug solution was replaced with MTT at a concentration of 5 mg/mL, and co-incubated with cells for another 4 h. The supernatant was discarded and adding with 150 μL DMSO to dissolve the MTT-formazan. The absorbance at 492 nm was recorded using a microplate reader.

[9] = tested on: HepG2 cells (GLUT1-overexpressing); details: 1 μM CPT, flow cytometry
Description: HepG2 and L02 cells were seeded into 96-well culture plates at a density of 1.2 × 10^4 cells/well and incubated for 24 h. After the confluency and morphology were checked, 1 μM conjugates (calculated from CPT) were added to each well and co-incubated with the cells for different times (1, 4, and 8 h). […] The D-GLU was a substrate as well as inhibitor of GLUT1. Then, the GPCC conjugate was co-incubated with the cells for 4 h. At the end of the incubation time, the conjugate solutions were withdrawn from the wells, and the cells were washed three times with cold PBS. After fixation with 4% paraformaldehyde, the cells were qualitatively analyzed by fluorescence microscopy (IX71, Olympus, Tokyo, Japan). After trypsinization and re-suspension of the cells in PBS (pH 7.4), the fluorescence intensity was quantitatively analyzed by flow cytometry (BD FACSAria III, Piscataway, NJ).

H22 tumor-bearing mice [10] = tested on: H22 tumor-bearing mice
Description: as §2, §1

[11] = 1.5 mg CPT/kg i.v., two-compartment model
[12] = rat, plasma, iv, 1.5 mg/kg, 1.5 mg CPT/kg i.v., two-compartment model

| Compound | subcellular localization (HepG2 cells [1]) | S phase percentage (HepG2 cells [2]) | H&E histology of liver and spleen (H22 tumor-bearing mice [3]) | cellular uptake in MCTS (HepG2 MCTS) | particle size (DLS) [4] | AUC(0–t) [7, 11] | AUC(0–∞) [7, 11] | CL [7, 11] | Cmax [7, 11] | MRT(0–t) [7, 11] | MRT(0–∞) [7, 11] | V (apparent volume of distribution) [7, 11] | t1/2 [7, 11] | maximum plasma drug concentration [7] | apoptosis induction effect (HepG2 cells [8]) | further results |
| --- | --- | --- | --- | --- | --- | --- | --- | --- | --- | --- | --- | --- | --- | --- | --- | --- |
| PAMAM–CPT–Cy7 [PCC] | accumulated in the nuclei of the HepG2 cells | 34.7% | significant hepatotoxicity and spleen toxicity | obviously stronger cellular uptake than the MPCC conjugate | 17.6 nm | 3594 ± 665 ng·h/mL | 4038 ± 505 ng·h/mL | 6.27 ± 0.767 mL/min/kg | 2530 ± 330 ng/mL | 5.042 ± 0.225 h | 9.566 ± 6.991 h | 5.104 ± 3.531 L/kg | 0.398 ± 0.045 h | 2.53 µg/mL |  | CPT release rate [5]: slightly increased release rate; fluorescence in tumor sites (H22 tumor-bearing mice [6]): slight fluorescence |
| CC[C@@]1(O)C(=O)OCc2c1cc1n(c2=O)Cc2cc3ccccc3nc2-1 [CPT, camptothecin] | hardly observed in the cells | 27.49% | significant hepatotoxicity and spleen toxicity |  |  |  |  |  |  |  |  |  |  | 0.92 µg/mL | highest apoptosis induction effect | body weight change (H22 tumor-bearing mice [3]; 1 mg/kg CPT i.v. on days 0, 2, 4, 6, 8, 10): smallest increase; AUC(0-inf) [7, 12]: 753 ± 92 ng·h/mL; AUC(0-t) [7, 12]: 748 ± 92 ng·h/mL; Tmax [7, 12]: 1.98 min; clearance [7, 12]: 33.6 mL/min/kg; half-life [7, 12]: 9.9 ± 8.04 min; Cmax ([7]; rat, plasma, iv, 1.5 mg/kg, 1.5 mg CPT/kg i.v., two-compartment model, read-out: Cmax): 917 ± 50 ng/mL; MRT last ([7]; rat, plasma, iv, 1.5 mg/kg, 1.5 mg CPT/kg i.v., two-compartment model, read-out: MRT(0–t)): 2.4 ± 0.288 h; MRT inf ([7]; rat, plasma, iv, 1.5 mg/kg, 1.5 mg CPT/kg i.v., two-compartment model, read-out: MRT(0–∞)): 2.59 ± 0.291 h; Vd ([7]; rat, plasma, iv, 1.5 mg/kg, 1.5 mg CPT/kg i.v., two-compartment model, read-out: V (apparent volume of distribution)): 10.6 ± 1.18 L/kg |
| mPEG–PAMAM–CPT–Cy7 [MPCC] |  | 32.94% |  |  | 19.6 nm | 4677 ± 654 ng·h/mL | 4895 ± 620 ng·h/mL | 5.17 ± 0.617 mL/min/kg | 3807 ± 144 ng/mL | 4.341 ± 0.9 h | 5.81 ± 1.141 h | 3.207 ± 1.638 L/kg | 0.258 ± 0.027 h | 3.81 µg/mL |  | cytotoxicity (L02 cells): lower than that of PCC; time of maximum distribution at tumor sites (H22 tumor-bearing mice [6]): 4 h |
| Glucose–PEG–PAMAM-s-s–Camptothecin-Cy7 [GPCC] | accumulated in HepG2 nuclei more than the MPCC conjugate | 37.15% |  | obviously stronger cellular uptake than the MPCC conjugate |  |  |  |  |  |  |  |  |  |  | increased obviously | cellular uptake relative to MPCC [9]: approximately two-fold; tumor inhibition (H22 tumor-bearing mice [10]; 1 mg/kg CPT i.v. on days 0, 2, 4, 6, 8, 10, versus CPT suspension and other conjugate groups, p < .05): significantly better tumor inhibition rates; H&E histology of tumor tissue (H22 tumor-bearing mice [10]; 1 mg/kg CPT i.v., day 12): widespread necrosis in tumor tissues; tumor weight (H22 tumor-bearing mice [10]; 1 mg/kg CPT i.v., end of experiment, p < .05): significantly less than that of the MPCC conjugate |
